# According to patent US11566007B2, “Ras inhibitors” (Revolution Medicines, Inc., priority 2019, dated 2023):
# How the values were obtained:
# [1] = tested on: NCI-H358 cells (K-Ras G12C); assay: Potency assay: pERK in NCI-H358 cells; format: cell-based, human; details: Homo sapiens, NCI-H358; H358 KRAS G12C; read-out: pERK EC50
# Procedure, shortened: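 Inhibition of cellular pERK after a 4 h treatment, detected by AlphaLISA or In-Cell Western. IC50 from a four-parameter concentration-response fit.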
# K-Ras G12C = K-Ras G12C (Homo sapiens (Human), UniProt P01116+P62937, G12C); assay: Ras-Raf (BRAF RBD) disruption / FRET / MOA assay, KRAS G12C; format: biochemical; details: KRAS G12C; Ras-Raf disruption/FRET/MOA assay; read-out: IC50* KRAS G12C FRET data
# Procedure, shortened: (§1)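 A 10-point, 3-fold dilution series topping at 30 μM final was incubated 3 h at 25° C with the Ras/cyclophilin A/BRAF RBD mixture.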
# KRAS G12V = KRAS G12V (Homo sapiens (Human), UniProt P01116+P62937, G12V); assay: Ras-Raf (BRAF RBD) disruption / FRET / MOA assay, KRAS G12V; format: biochemical; details: read-out: IC50* KRAS G12V FRET data
# Procedure, shortened: as §1
# NRAS G12C = NRAS G12C (Homo sapiens (Human), UniProt P01111+P62937, G12C); assay: Ras-Raf (BRAF RBD) disruption / FRET / MOA assay, NRAS G12C; format: biochemical; details: read-out: IC50* NRAS G12C FRET data
# Procedure, shortened: as §1
# NRAS Q61R = NRAS Q61R (Homo sapiens (Human), UniProt P01111+P62937, Q61R); assay: Ras-Raf (BRAF RBD) disruption / FRET / MOA assay, NRAS Q61R; format: biochemical; details: NRAS Q61R; Ras-Raf disruption/FRET/MOA assay; read-out: IC50* NRAS Q61R FRET data
# Procedure, shortened: (§2)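 Compounds (30 μM top final, 10-point 3-fold dilutions) incubated 3 h at 25° C with nucleotide-loaded Ras, cyclophilin A and BRAF RBD. Detection with 10 nM anti-His Eu-W1024 and 50 nM anti-GST allophycocyanin over another 1.5 h. Lowered TR-FRET ratio relative to DMSO wells gives IC50.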
# NRAS WT = NRAS WT (Homo sapiens (Human), UniProt P01111+P62937); assay: Ras-Raf (BRAF RBD) disruption / FRET / MOA assay, NRAS WT; format: biochemical; details: read-out: IC50* NRAS WT FRET data
# Procedure, shortened: as §2
# Sequence of KRAS G12V (P01116-2 other isoform, or with tags, fused parts or gaps G12V): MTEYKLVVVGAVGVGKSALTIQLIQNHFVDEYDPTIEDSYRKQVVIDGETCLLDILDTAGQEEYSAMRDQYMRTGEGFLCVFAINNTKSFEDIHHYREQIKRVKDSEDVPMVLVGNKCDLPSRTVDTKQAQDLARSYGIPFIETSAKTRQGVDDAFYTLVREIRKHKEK
# Sequence of KRAS G12V (P62937 whole entry): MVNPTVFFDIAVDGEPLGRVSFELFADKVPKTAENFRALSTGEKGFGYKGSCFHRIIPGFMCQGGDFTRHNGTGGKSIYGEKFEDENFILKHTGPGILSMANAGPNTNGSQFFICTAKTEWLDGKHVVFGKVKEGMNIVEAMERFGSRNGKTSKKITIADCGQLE
# Sequence of K-Ras G12C (P01116-2 other isoform, or with tags, fused parts or gaps G12C): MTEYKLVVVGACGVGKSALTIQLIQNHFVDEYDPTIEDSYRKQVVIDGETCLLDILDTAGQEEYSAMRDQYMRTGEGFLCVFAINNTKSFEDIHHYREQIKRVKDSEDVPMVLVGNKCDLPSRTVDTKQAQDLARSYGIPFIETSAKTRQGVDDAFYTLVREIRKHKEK
# Sequence of K-Ras G12C (P62937 whole entry): as the sequence (P62937 whole entry) above
# Sequence of NRAS WT (P01111 whole entry): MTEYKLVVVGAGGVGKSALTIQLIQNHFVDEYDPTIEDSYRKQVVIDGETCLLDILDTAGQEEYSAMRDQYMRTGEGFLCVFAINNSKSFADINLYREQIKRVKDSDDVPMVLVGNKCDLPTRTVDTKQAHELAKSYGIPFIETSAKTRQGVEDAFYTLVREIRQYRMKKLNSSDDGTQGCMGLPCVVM
# Sequence of NRAS WT (P62937 whole entry): as the sequence (P62937 whole entry) above
# Sequence of NRAS G12C (P01111 whole entry G12C): as the sequence (P01111 whole entry) above, with G12C counted along it
# Sequence of NRAS G12C (P62937 whole entry): as the sequence (P62937 whole entry) above
# Sequence of NRAS Q61R (P01111 whole entry Q61R): as the sequence (P01111 whole entry) above, with Q61R counted along it
# Sequence of NRAS Q61R (P62937 whole entry): as the sequence (P62937 whole entry) above
SMILES,EC50 [1] [nM],IC50 (K-Ras G12C) [nM],IC50 (KRAS G12V) [nM],IC50 (NRAS G12C) [nM],IC50 (NRAS Q61R) [nM],IC50 (NRAS WT) [nM]
"CCn1c(-c2cccnc2[C@H](C)OC)c2c3cc(ccc31)-c1csc(n1)C[C@H](NC(=O)[C@H](C(C)C)N(C)C(=O)N1CCC3(CC1)CN(C(=O)/C=C/CN1CCOCC1)C3)C(=O)N1CCC[C@H](N1)C(=O)OCC(C)(C)C2 (atropisomer, axis not shown) [Example A669]",< 5000,10 to 100,100 to 1000,10 to 100,10 to 100,10 to 100
"CCn1c(-c2cccnc2[C@H](C)OC)c2c3cc(ccc31)-c1csc(n1)C[C@H](NC(=O)[C@H](C(C)C)N(C)C(=O)N1CCC3(CC1)CN(C(=O)/C=C/CN1CCCCC1)C3)C(=O)N1CCC[C@H](N1)C(=O)OCC(C)(C)C2 (atropisomer, axis not shown) [Example A670]",< 5000,100 to 1000,100 to 1000,100 to 1000,100 to 1000,100 to 1000
"C/C=C/C(=O)N1CC2(CCN(C(=O)N(C)[C@H](C(=O)N[C@H]3Cc4nc(cs4)-c4ccc5c(c4)c(c(-c4cccnc4[C@H](C)OC)n5CC)CC(C)(C)COC(=O)[C@@H]4CCCN(N4)C3=O)C(C)C)CC2)C1 (atropisomer, axis not shown) [Example A671]",< 5000,10 to 100,100 to 1000,10 to 100,100 to 1000,100 to 1000
"CCn1c(-c2cccnc2[C@H](C)OC)c2c3cc(ccc31)-c1nc(co1)C[C@H](NC(=O)[C@@H](COC1CN(C(=O)C#CC(C)(C)N(C)C)C1)C(C)C)C(=O)N1CCC[C@H](N1)C(=O)OCC(C)(C)C2 (atropisomer, axis not shown) [Example A675, (2R)-2-(((1-(4-(dimethylamino)-4-methylpent-2-ynoyl)azetidin-3-yl)oxy)methyl)-N-((6^3S,4S,Z)-1^1-ethyl-1^2-(2-((S)-1-methoxyethyl)pyridin-3-yl)-10,10-dimethyl-5,7-dioxo-6^1,6^2,6^3,6^4,6^5,6^6-hexahydro-1^1H-8-oxa-2(2,4)-oxazola-1(5,3)-indola-6(1,3)-pyridazinacycloundecaphane-4-yl)-3-methylbutanamide]",< 5000,10 to 100,> 10000,10 to 100,> 10000,> 10000
"C=CC(=O)N1CCN(C(=O)N(C)[C@H](C(=O)N[C@H]2Cc3nc(cs3)-c3ccc4c(c3)c(c(-c3cccnc3[C@H](C)OC)n4CC(F)(F)F)CC(C)(C)COC(=O)[C@@H]3CCCN(N3)C2=O)C(C)C)CC12CC2 (atropisomer, axis not shown) [Example A679]",< 5000,10 to 100,10 to 100,10 to 100,10 to 100,10 to 100
"C=C(OC)C(=O)N1CC2(CCN(C(=O)N(C)[C@H](C(=O)N[C@H]3Cc4nc(cs4)-c4ccc5c(c4)c(c(-c4cccnc4[C@H](C)OC)n5CC)CC(C)(C)COC(=O)[C@@H]4CCCN(N4)C3=O)C(C)C)CC2)C1 (atropisomer, axis not shown) [Example A681]",< 5000,10 to 100,100 to 1000,10 to 100,100 to 1000,100 to 1000
"C=C(F)C(=O)N1CC2(CCN(C(=O)N(C)[C@H](C(=O)N[C@H]3Cc4nc(cs4)-c4ccc5c(c4)c(c(-c4cccnc4[C@H](C)OC)n5CC)CC(C)(C)COC(=O)[C@@H]4CCCN(N4)C3=O)C(C)C)CC2)C1 (atropisomer, axis not shown) [Example A682]",< 5000,10 to 100,100 to 1000,10 to 100,100 to 1000,100 to 1000
"C=CC(=O)N1CC2(CCN2C(=O)N(C)[C@H](C(=O)N[C@H]2Cc3cccc(c3)-c3ccc4c(c3)c(c(-c3cccnc3[C@H](C)OC)n4CC)CC(C)(C)COC(=O)[C@@H]3CCCN(N3)C2=O)C(C)C)C1 (atropisomer, axis not shown) [Example A684]",< 5000,< 10,100 to 1000,< 10,100 to 1000,100 to 1000
"C=CC(=O)N1C[C@H]2CN(C(=O)N(C)[C@H](C(=O)N[C@H]3Cc4nc(cs4)-c4ccc5c(c4)c(c(-c4cccnc4[C@H](C)OC)n5CC)CC(C)(C)COC(=O)[C@@H]4CCCN(N4)C3=O)C(C)C)[C@H]2C1 (atropisomer, axis not shown) [Example A686]",< 5000,10 to 100,100 to 1000,10 to 100,100 to 1000,100 to 1000
"C=CC(=O)N1CC[C@H]2[C@@H](C1)CN2C(=O)N(C)[C@H](C(=O)N[C@H]1Cc2nc(cs2)-c2ccc3c(c2)c(c(-c2cccnc2[C@H](C)OC)n3CC)CC(C)(C)COC(=O)[C@@H]2CCCN(N2)C1=O)C(C)C (atropisomer, axis not shown) [Example A687]",< 5000,100 to 1000,100 to 1000,100 to 1000,100 to 1000,100 to 1000
"CCn1c(-c2cccnc2[C@H](C)OC)c2c3cc(ccc31)-c1csc(n1)C[C@H](NC(=O)C[C@@H]1COC3(CN(C(=O)C#CC(C)(C)N(C)C)C3)O1)C(=O)N1CCC[C@H](N1)C(=O)OCC(C)(C)C2 (atropisomer, axis not shown) [Example A691]",< 5000,< 10,1000 to 10000,< 10,1000 to 10000,1000 to 10000
"CCn1c(-c2cccnc2[C@H](C)OC)c2c3cc(ccc31)-c1cnc(o1)C[C@H](NC(=O)[C@H](C(C)C)N(C)C(=O)[C@H]1CCN(C(=O)C#CC(C)(C)N(C)C)C1)C(=O)N1CCC[C@H](N1)C(=O)OCC(C)(C)C2 (atropisomer, axis not shown) [Example A692, (3S)-1-(4-(dimethylamino)-4-methylpent-2-ynoyl)-N-((2S)-1-(((6^3S,4S)-1^1-ethyl-1^2-(2-((S)-1-methoxyethyl)pyridin-3-yl)-10,10-dimethyl-5,7-dioxo-6^1,6^2,6^3,6^4,6^5,6^6-hexahydro-1^1H-8-oxa-2(5,2)-oxazola-1(5,3)-indola-6(1,3)-pyridazinacycloundecaphane-4-yl)amino)-3-methyl-1-oxobutan-2-yl)-N-methylpyrrolidine-3-carboxamide]",< 5000,< 10,1000 to 10000,< 10,> 10000,> 10000
"C=CC(=O)N1CCOC2(CCN(C(=O)N(C)[C@H](C(=O)N[C@H]3Cc4nc(cs4)-c4ccc5c(c4)c(c(-c4cccnc4[C@H](C)OC)n5CC)CC(C)(C)COC(=O)[C@@H]4CCCN(N4)C3=O)C(C)C)CC2)C1 (atropisomer, axis not shown) [Example A695]",< 5000,100 to 1000,100 to 1000,10 to 100,100 to 1000,100 to 1000
"C=CC(=O)N1CCC2(CC1)CCN(C(=O)N(C)[C@H](C(=O)N[C@H]1Cc3nc(cs3)-c3ccc4c(c3)c(c(-c3cccnc3[C@H](C)OC)n4CC)CC(C)(C)COC(=O)[C@@H]3CCCN(N3)C1=O)C(C)C)CC2 (atropisomer, axis not shown) [Example A697]",< 5000,10 to 100,100 to 1000,10 to 100,10 to 100,10 to 100
"C=CC(=O)N1CCC(F)(C(=O)N(C)[C@H](C(=O)N[C@H]2Cc3nc(cs3)-c3ccc4c(c3)c(c(-c3cccnc3[C@H](C)OC)n4CC)CC(C)(C)COC(=O)[C@@H]3CCCN(N3)C2=O)C(C)C)CC1 (atropisomer, axis not shown) [Example A700]",< 5000,10 to 100,100 to 1000,10 to 100,100 to 1000,100 to 1000
"C=CC(=O)N1CCO[C@H]2CN(C(=O)N(C)[C@H](C(=O)N[C@H]3Cc4nc(cs4)-c4ccc5c(c4)c(c(-c4cccnc4[C@H](C)OC)n5CC)CC(C)(C)COC(=O)[C@@H]4CCCN(N4)C3=O)C(C)C)C[C@H]21 (atropisomer, axis not shown) [Example A706]",< 5000,10 to 100,1000 to 10000,10 to 100,100 to 1000,1000 to 10000
"CO[C@@H](C)c1ncccc1-c1c2c3cc(ccc3n1CC(F)(F)F)-c1cnc(o1)C[C@H](NC(=O)[C@H](C(C)C)N(C)C(=O)[C@H]1CCN(C(=O)C#CC(C)(C)N(C)C)C1)C(=O)N1CCC[C@H](N1)C(=O)OCC(C)(C)C2 (atropisomer, axis not shown) [Example A707]",< 5000,< 10,1000 to 10000,< 10,> 10000,1000 to 10000
"CO[C@@H](C)c1ncccc1-c1c2c3nc(ccc3n1CC(F)(F)F)-c1cccc(c1)C[C@H](NC(=O)[C@@H](COC1CN(C(=O)C#CC(C)(C)N(C)C)C1)C(C)C)C(=O)N1CCC[C@H](N1)C(=O)OCC(C)(C)C2 (atropisomer, axis not shown) [Example A724]",< 5000,10 to 100,> 10000,10 to 100,> 10000,> 10000
